In paper PMC8379256, “A xanthene derivative, DS20060511, attenuates glucose intolerance by inducing skeletal muscle-specific GLUT4 translocation in mice” (Communications Biology, 2021):
Several values for one entry are separate records, joined by “and”; a condition that tells them apart may be missing. Equal entries are not always repeated.

Assays:
C57BL/6 mice = test: Blood glucose after DS20060511 alone in fed or overnight food-deprived mice; type: in vivo, mouse; conditions: for Blood glucose: 30 mg/kg; for blood glucose levels (in words): 30 mg kg−1
Protocol: Fig. 2 Treatment with DS20060511 decreases the blood glucose levels via inducing GLUT4 translocation and increasing skeletal muscle glucose uptake. a, b Blood glucose levels after treatment with DS20060511 (30 mg kg^−1) in C57BL/6 mice that had received continued access to food (a) and mice that had been denied access to food overnight (b) (n = 8). Values shown are means ± SEM. **P < 0.01 vs. 0 min by one-way ANOVA followed by Dunnett’s test. c Blood glucose and plasma insulin levels during oral GTT in the C57BL/6 mice (n = 5–6). The mice received oral administration of vehicle or DS20060511 at the indicated dose, 15 min prior to glucose administration (1.5 g kg^−1). Values shown are means ± SEM. *P < 0.05, **P < 0.01 vs. vehicle by one-way ANOVA followed by Williams’ test. d [^3H]-2-DG uptake in the soleus muscle, gastrocnemius muscle (Gastro.), heart, and white adipose tissue (WAT) at 60 min during the intraperitoneal GTT in the C57BL/6 mice (n = 3). The mice received oral administration of vehicle or DS20060511 (30 mg kg^−1), 15 min prior to glucose administration (1 g kg^−1 glucose containing [^3H]-2-DG). […] Uncropped blots for e can be found in Supplementary Fig. 6.

[1] = test system: isolated skeletal muscles; test: 2-DG uptake with muscle contraction (5 Hz electrical stimulation) in isolated muscles; parameters: species or system mouse; conditions: for IC 2DOG: incubation 10 min
Protocol: The soleus or EDL muscle was removed from anesthetized mice (isoflurane anesthesia) that had been denied access to food overnight, and incubated with oxygenated (95% O2/5% CO2) Krebs-Henseleit Bicarbonate (KHB) buffer (118.1 mM NaCl, 4.7 mM KCl, 1.1 mM KH2PO4, 1.2 mM MgSO4, 2.5 mM CaCl2, and 25 mM NaHCO3, pH7.4) in the presence of 11.1 mM glucose at 37 °C. The muscle specimens were then treated with the indicated concentrations of the compounds in KHB buffer containing 11.1 mM glucose and 8 mM mannitol for 10 min at 37 °C. Thereafter, the muscles were rinsed with KHB buffer containing 8 mM mannitol and the compounds for 5 min at 37 °C. Lastly, the muscles were treated with the compounds in KHB buffer containing 1 mM 2-DG (with 0.3 μCi mL^−1 [^3H]-2-DG) and 8 mM mannitol (with 0.03 μCi mL^−1 [^14C]-mannitol) for 10 min at 37 °C. After the muscle specimens were washed, they were lysed with 1 N NaOH and neutralized with 1 N HCl. The ^14C- and ^3H-specific activities were counted with a liquid scintillation counter. The specific uptake of 2-DG was calculated by subtracting the nonspecific uptake of mannitol from the total 2-DG uptake. To investigate the effects of muscle contraction, muscle contraction was induced by electrical stimulation with 5 Hz (1 ms pulse duration, 100 V) for 10 min (SEN-5201, Nihon Koden, Tokyo, Japan).

AMPK = AMPK (Thr172) phosphorylation in isolated muscles with or without electrical stimulation; parameters: species or system mouse; conditions: isolated skeletal muscle; 10 μM DS20060511; Fig. 6b
db/db mice = test: Repeated (28-day) DS20060511 treatment of db/db mice; type: in vivo, mouse; parameters: Blood glucose after refeeding AUC: unit not given here; conditions: for Blood glucose after refeeding / Blood glucose after refeeding AUC: db/db
Protocol: db/db mice were acclimatized to a 6 h restricted feeding pattern from 10 am to 4 pm prior to the start of the experiment. For 28 days from 6 weeks of age, the mice received oral administration of 10 mg kg^−^1 of DS20060511 or vehicle once a day, 15 min prior to their feeding. On day 1 and day 28, the blood glucose levels were measured between 10 am to 4 pm. Blood glucose levels were measured using Glutest Every in blood samples collected from the tail vein. Daily food intake was monitored throughout the study, and the body weight, blood glucose, and plasma insulin were measured on day 1 and day 28. The hemoglobin A1c (HbA1c) level was also measured with a HLC-723G8 Automated Glycohemoglobin Analyzer on day 1 and day 28 (Tosoh, Tokyo, Japan). The triceps surae muscle (skeletal muscle), heart, epididymal WAT, and liver were excised immediately after euthanasia, and the tissue weights were measured on day 29. The glycogen contents of the muscle, heart, and liver were measured as described previously,[52] with some modifications. In brief, each tissue sample (50–100 mg) was weighed and boiled in 0.75 mL of 8 M KOH. After cooling, 0.25 mL of 1 M Na2SO4, followed by 2 mL of 99.5% ethanol, was added to precipitate the glycogen. The samples were centrifuged and the glycogen precipitates were dissolved in distilled water. Glycogen was degraded to glucose by treatment with amyloglucosidase (Sigma–Aldrich) at 55 °C for 60 min, and the glucose concentration was determined with Glucose CII Test Wako (FUJIFILM Wako Pure Chemical).

[2] = DS20060511 1 μM, electrical stimulation +, muscles #1-3
[3] = db/db mice, 10 mg/kg, Day 1, individual animals, 10 mg/kg
[4] = db/db mice, 10 mg/kg, Day 28, individual animals, 10 mg/kg

## COc1ccc2c(C)c(C(=O)O)ccc2c1C1C2=C(CC(C)(C)CC2=O)OC2=C1C(=O)CC(C)(C)C2 [DS20060511]
C57BL/6 mice; Non-fasted, 0 min, individual mice
  Blood glucose: 125 mg/dL and 139 mg/dL and 194 mg/dL and 126 mg/dL and 129 mg/dL and 150 mg/dL and 154 mg/dL and 134 mg/dL
C57BL/6 mice; Non-fasted, 30 min
  Blood glucose: 134 mg/dL and 128 mg/dL and 101 mg/dL and 95 mg/dL and 122 mg/dL and 111 mg/dL and 121 mg/dL and 96 mg/dL
C57BL/6 mice; Overnight fasted, 0 min
  Blood glucose: 58 mg/dL and 52 mg/dL and 73 mg/dL and 46 mg/dL and 54 mg/dL and 55 mg/dL and 61 mg/dL
C57BL/6 mice; Overnight fasted, 30 min
  Blood glucose: 52 mg/dL and 53 mg/dL and 57 mg/dL and 60 mg/dL and 42 mg/dL and 55 mg/dL and 49 mg/dL
C57BL/6 mice; Overnight fasted, 60 min
  Blood glucose: 56 mg/dL and 57 mg/dL and 59 mg/dL and 48 mg/dL and 50 mg/dL and 45 mg/dL
C57BL/6 mice; mice denied access to food overnight, Fig. 2b
  blood glucose levels (in words): no effect on the blood glucose levels
C57BL/6 mice; mice with continued access to food, oral, Fig. 2a
  blood glucose levels (in words): modestly, but statistically significantly, reduced the blood glucose levels
[1]; [2]
  IC 2DOG: 385 nmol/g and 372 nmol/g and 382 nmol/g
  Raio (2-DG uptake relative to unstimulated control): 2.15 and 2.08 and 2.17
[1]; DS20060511 10 μM, electrical stimulation +, muscles #1-3
  IC 2DOG: 366 nmol/g and 368 nmol/g and 397 nmol/g
[1]; vs electrical stimulation alone, Fig. 6a
  2-DG uptake with electrical muscle stimulation: elevated to a greater degree
AMPK
  AMPK phosphorylation level: no such change was observed
db/db mice; 28-day repeated-dose study in db/db mice
  visible sign of toxicity: did not find any visible sign of toxicity
db/db mice; [3]
  Body weight (g) Day 1: 25.2 g and 26.3 g and 27.7 g and 27.0 g and 28.4 g
  Glucose (mg/dl) Day 1: 122 mg/dL and 152 mg/dL and 138 mg/dL and 136 mg/dL and 89 mg/dL and 180 mg/dL
  Insulin (ng/ml) Day 1: 2.27 ng/mL and 4.08 ng/mL and 4.23 ng/mL and 4.25 ng/mL and 2.30 ng/mL and 3.38 ng/mL
db/db mice; [4]
  Body weight (g) Day 28: 37.0 g and 39.8 g and 40.4 g and 39.6 g and 39.4 g and 41.1 g
  Glucose (mg/dl) Day 28: 167 mg/dL and 157 mg/dL and 194 mg/dL and 145 mg/dL and 132 mg/dL and 155 mg/dL
  Insulin (ng/ml) Day 28: 7.52 ng/mL and 5.68 ng/mL and 8.16 ng/mL and 6.98 ng/mL and 8.68 ng/mL and 6.72 ng/mL
db/db mice; db/db mice, 10 mg/kg, WAT, individual animals
  Tissue weight (g) WAT: 1.93 g and 2.01 g and 2.15 g and 1.84 g and 1.69 g and 2.14 g
db/db mice; db/db mice, 10 mg/kg, heart, individual animals
  Tissue weight (g) Heart: 0.11 g and 0.10 g
db/db mice; db/db mice, 10 mg/kg, liver, individual animals
  Tissue weight (g) Liver: 1.31 g and 1.43 g and 1.57 g and 1.42 g and 1.77 g
db/db mice; db/db mice, 10 mg/kg, muscle, individual animals
  Tissue weight (g) Muscle: 0.17 g and 0.18 g
db/db mice; db/db mice, DS20060511 10 mg/kg, after repeated treatment, individual animals, 10 mg/kg
  HbA1c (%) Afrer: 3.6% and 3.4% and 3.3% and 3.8%
db/db mice; db/db mice, DS20060511 10 mg/kg, change from pre to after, individual animals, 10 mg/kg
  HbA1c (%) Delta: 0.38% and 0.35% and 0.34% and 0.46% and 0.33% and 0.7%
db/db mice; db/db mice, DS20060511 10 mg/kg, pre treatment (baseline), individual animals, 10 mg/kg
  HbA1c (%) Pre: 3.2% and 3.3% and 3.1% and 2.9%
db/db mice; db/db mice, 10 mg kg−1 day−1, day 1 to day 28
  blood glucose levels (in words): decreased significantly
db/db mice; db/db mice, 28-day treatment
  tissue weights of muscle, heart, WAT, liver; glycogen contents of muscle, heart, liver: no significant changes
db/db mice; db/db mice, chronic treatment, 4 weeks
  hemoglobin A1c (HbA1c) value (in words): significantly reduced
db/db mice; db/db mice, vs vehicle
  body weight, food intake, fasting blood glucose level, fasting plasma insulin levels: no statistically significant differences
db/db mice; 10 mg/kg, Day 1, 0 hr, individual animals, 10 mg/kg
  Blood glucose after refeeding: 91 mg/dL and 54 mg/dL and 72 mg/dL and 70 mg/dL and 85 mg/dL and 96 mg/dL
db/db mice; 10 mg/kg, Day 1, 0.5 hr, individual animals, 10 mg/kg
  Blood glucose after refeeding: 138 mg/dL and 112 mg/dL and 86 mg/dL and 108 mg/dL and 117 mg/dL and 130 mg/dL
db/db mice; 10 mg/kg, Day 1, 1 hr, individual animals, 10 mg/kg
  Blood glucose after refeeding: 162 mg/dL and 145 mg/dL and 120 mg/dL and 136 mg/dL and 126 mg/dL and 147 mg/dL
db/db mice; 10 mg/kg, Day 1, 2 hr, individual animals, 10 mg/kg
  Blood glucose after refeeding: 220 mg/dL and 154 mg/dL and 182 mg/dL and 126 mg/dL and 135 mg/dL and 171 mg/dL
db/db mice; 10 mg/kg, Day 1, 4 hr, individual animals, 10 mg/kg
  Blood glucose after refeeding: 189 mg/dL and 177 mg/dL and 142 mg/dL and 139 mg/dL and 179 mg/dL and 259 mg/dL
db/db mice; 10 mg/kg, Day 1, 6 hr, individual animals, 10 mg/kg
  Blood glucose after refeeding: 261 mg/dL and 247 mg/dL and 262 mg/dL and 136 mg/dL and 157 mg/dL and 294 mg/dL
db/db mice; 10 mg/kg, Day 1, -0.25 hr, individual animals, 10 mg/kg
  Blood glucose after refeeding: 124 mg/dL and 77 mg/dL and 78 mg/dL and 106 mg/dL and 118 mg/dL
db/db mice; 10 mg/kg, Day 1, individual animals, 10 mg/kg
  Blood glucose after refeeding AUC: 1236.0 and 1043.0 and 1019.0 and 813.5 and 939.5 and 1321.3
db/db mice; 10 mg/kg, Day 28, 0 hr, individual animals, 10 mg/kg
  Blood glucose after refeeding: 140 mg/dL and 130 mg/dL and 193 mg/dL and 159 mg/dL and 136 mg/dL
db/db mice; 10 mg/kg, Day 28, 0.5 hr, individual animals, 10 mg/kg
  Blood glucose after refeeding: 171 mg/dL and 147 mg/dL and 157 mg/dL and 168 mg/dL and 130 mg/dL and 217 mg/dL
db/db mice; 10 mg/kg, Day 28, 1 hr, individual animals, 10 mg/kg
  Blood glucose after refeeding: 187 mg/dL and 108 mg/dL and 139 mg/dL and 164 mg/dL and 142 mg/dL and 240 mg/dL
db/db mice; 10 mg/kg, Day 28, 2 hr, individual animals, 10 mg/kg
  Blood glucose after refeeding: 230 mg/dL and 128 mg/dL and 167 mg/dL and 182 mg/dL and 163 mg/dL and 274 mg/dL
db/db mice; 10 mg/kg, Day 28, 4 hr, individual animals, 10 mg/kg
  Blood glucose after refeeding: 256 mg/dL and 306 mg/dL and 290 mg/dL and 274 mg/dL and 297 mg/dL and 345 mg/dL
db/db mice; 10 mg/kg, Day 28, 6 hr, individual animals, 10 mg/kg
  Blood glucose after refeeding: 334 mg/dL and 357 mg/dL and 336 mg/dL and 316 mg/dL and 282 mg/dL and 356 mg/dL
db/db mice; 10 mg/kg, Day 28, -0.25 hr, individual animals, 10 mg/kg
  Blood glucose after refeeding: 157 mg/dL and 175 mg/dL and 184 mg/dL and 155 mg/dL and 151 mg/dL and 135 mg/dL
db/db mice; 10 mg/kg, Day 28, individual animals, 10 mg/kg
  Blood glucose after refeeding AUC: 1526.0 and 1424.3 and 1491.8 and 1462.3 and 1397.8 and 1875.8
